According to a melting point compilation (Tetko et al.; mined from patent text by program, amines drawn as free bases though some values may be those of a salt):

Row | Compound | melting point
1 | O=C(c1cccs1)c1cnn2c(-c3cccc(-c4nnn[nH]4)c3)ccnc12 | 290 °C
2 | O=C1C(Br)=C(c2ccccc2)C(=O)N1Nc1ccccc1 | 146 to 147 °C
3 | O=C(O)c1ccc(OCCCOCCCCCCBr)cc1 | 72 to 75 °C
4 | COc1ccc(C(O)c2cccc(OCc3ccccc3)c2)cc1 (centres undefined) | 50 to 60 °C
5 | O=C(N[C@H]1CCN(C(=O)c2cc(C(F)(F)F)cc(C(F)(F)F)c2)[C@H](Cc2ccc(Cl)cc2)C1)c1cc(=O)c2ccccc2o1 | 169 to 170 °C
6 | CCCCCCCCCCCCCCCCOc1coc(C(=O)O)cc1=O | 126 to 130 °C
7 | COCc1ccc2c(c1S(N)(=O)=O)S(=O)(=O)C(C)C2 (centres undefined) | 115 °C
8 | Cc1cc(=O)[nH]c2cc(OCCCN3CCN(C(c4ccccc4)c4ccccc4)CC3)ccc12 | 208 to 210 °C
9 | c1ccc(COc2ccc(OCCN3CCN(c4ccccc4)CC3)cc2)cc1 | 116 to 119 °C
10 | CC(C)=CCCN1c2ccccc2CN1[N+](=O)[O-] | 51 to 52 °C
11 | CCCN1C(=O)C2C3CCC(O3)C2C1=O (centres undefined) | 79 to 80 °C
12 | CC[C@@H](C1CC1)n1cc(Cl)nc(N2CCc3cc(Br)cc(Br)c32)c1=O | 165 °C
13 | CC1CC2Oc3ccc(Cl)cc3C(=O)N2O1 (centres undefined) | 147 to 151 °C
14 | NCC1COc2ccc3[nH]c(=O)oc3c2O1 (centres undefined) | > 250 °C
15 | COc1cc(OC)c([N+](=O)[O-])c(OC)c1NC(=O)OCCCl | 133 °C
16 | COC(=O)C(Cl)=C(NC1CC1)C(C(=O)OC)C(=O)C(F)F (centres undefined) | 55 to 57 °C
17 | Cc1cc(-n2ccnc2)c2cccc(OCc3c(Cl)ccc(S(=O)(=O)N4CCC[C@H]4C(=O)NCCc4cccnc4)c3Cl)c2n1 | 117 °C
18 | O=C(O)C(=O)N1CCC(=Cc2ccccc2)CC1 | 125 °C
19 | CS(=O)c1ccccc1C(=O)Nc1ccccc1 (centres undefined) | 194 to 195 °C
20 | COc1cccc(S(=O)(=O)N2CCCC2=O)c1 | 108 to 109 °C
21 | CCCCCCCCCCC[C@@H]1CC(=O)CC(=O)O1 | 82 to 85 °C
22 | COc1ccc2c(c1)CCC1CC(=O)NN=C21 (centres undefined) | 198 °C
23 | Cn1nnnc1CN1C2CCC1CC(Oc1ccc(Cl)c(Cl)c1)C2 (centres undefined) | 119 to 120 °C

Row | Compound | melting point
24 | CN1C(=O)C2(COc3cc4c(cc32)OCCO4)c2c(C(=O)N3CCCC3)cccc21 (centres undefined) | 242 to 244 °C
25 | O=C(O)c1ccc(OCCCCCCO)cc1F | 98 to 99 °C
26 | OCC1CCn2c(cc3ccccc32)C1 (centres undefined) | 110 to 111 °C
27 | CC1=Cc2cc(Br)cc(S(N)(=O)=O)c2OS1(=O)=O | 243 to 245 °C
28 | O=C1c2cccc3c(N4CCCC4)c([N+](=O)[O-])cc(c23)C(=O)N1O | 249 to 252 °C
29 | CN(C)CCCCCCCOc1ccc(-c2nnc(CSCCOc3ccccc3)o2)cc1 | 39 to 40 °C
30 | Cc1c2n(c3ccccc13)C(=O)C(C(O)c1cccnc1)CC2 (centres undefined) | 83 to 86 °C
31 | CC(=O)NNC1=Nc2sccc2C(c2ccccc2)=NC1 | 194 to 196 °C
32 | [N-]=[N+]=Nc1cc2ccccc2oc1=O | 108 to 112 °C
33 | O=S1(=O)NCNc2c(-c3ccccc3)cc(-c3ccccc3)cc21 | 222 to 225 °C
34 | Cc1ncsc1C(=O)Nc1ccc(-n2nc(C3CC3)cc2C2CC2)c(F)c1 | 102 to 106 °C
35 | COc1ccc(C2(C#Cc3csc(C(=O)O)c3)CCC(=O)CC2)cc1OC1CCCC1 | 80 to 82 °C
36 | COc1cc(C(=O)O)ccc1Cn1cnc2ccc(NC(=O)OC3CCCC3)cc21 | 241 to 242 °C
37 | O=C(C1CC1)N1CCC2(CC1)OCCO2 | 72 to 74 °C
38 | CC(=O)OC1CSC(Oc2ccc(-c3cccs3)nc2)C(OC(C)=O)C1OC(C)=O (centres undefined) | 172 °C
39 | COc1cc(N2CCN([C@H]3CC[C@H](c4cn(C)c5ccc(C#N)cc54)CC3)CC2)c2ncccc2c1Cl | 215 to 216 °C
40 | CCCN1CC(NS(=O)(=O)N(CC)CC)CC2c3cccc4[nH]cc(c34)CC21 (centres undefined) | 160 to 162 °C
41 | CC(=O)c1cn(Cc2ccccc2)c(=O)[nH]c1=O | 196 to 197 °C
42 | COc1ccccc1N1CCN(CCC(C(=O)NCCN2CCOCC2)c2ccccc2)CC1 (centres undefined) | 60 to 65 °C
43 | CC1C(C)(C)C2CCc3cnoc3C2C1(C)C (centres undefined) | 82.3 °C
44 | O=c1c(Br)c(OCc2ccccc2)ccn1Cc1cccc(C(F)(F)F)c1 | 182 °C
45 | CC(=O)NCCNCC(O)COc1ccc(CCOCC2CCC2)cc1 (centres undefined) | 108 °C

The remaining lines, values ahead:

Row | melting point | Compound
46 | 190 to 192 °C | CC1=C(N2CCN(C(=O)Nc3ccc(Cl)cc3)CC2)C(=O)c2ccccc2C1=O
47 | 230 to 231 °C | CSc1cc2ncnc(Nc3cccc(C)c3)c2cc1[N+](=O)[O-]
48 | 250 °C | CCN1CCCC1CNC(=O)Cc1ccc(-c2ccc3c(=O)c(C(=O)NC)c(C)n(CC)c3n2)s1 (centres undefined)
49 | 74 to 77 °C | CCCC=Cc1c(C(C)C)nc(C(C)C)c(C(=O)OCC)c1-c1ccc(C)cc1
50 | 101 to 107 °C | Cc1cc(Cl)c(C(N)=O)c(Cl)c1
51 | 200 to 201 °C | c1ccc(Cc2nc(C3CCCCC3)oc2CN2CCc3c([nH]c4ccccc34)C2)cc1
52 | 104 to 106 °C | CN(C)C(=O)COc1cccc(C=Cc2ccc3ccccc3n2)c1
53 | 112 to 114 °C | CC1=CC(C)(C)Cc2c1nc(C(C)C)c(CO)c2-c1ccc(F)cc1
54 | 131 to 133 °C | COc1ccc(C2=C(CC(C)N)C(=O)NCCC2)cc1 (centres undefined)
55 | 140 to 142 °C | CCC(=O)n1c(=O)n(-c2ccc([N+](=O)[O-])cc2)c(=O)n1C(=O)CC
56 | 107 to 108 °C | CCOC(=O)CCNC=C(C(=O)OCC)C(=O)c1cc(F)c(Cl)c([N+](=O)[O-])c1Cl
57 | 59 to 61 °C | CN(C(=O)c1ccnc(Cl)c1)c1ccccc1N1CCN(C(=O)OC(C)(C)C)CC1
58 | 98 to 99 °C | COC(=O)CCc1cc2cc(Cl)ccc2n1S(=O)(=O)c1ccc(OC)cc1
59 | 145 °C | COc1cccc2c1c(C)c(CCC(=O)O)n2Cc1ccc(Cl)cc1
60 | 248 to 251 °C | O=C1c2cccc3c(Br)ccc(c23)C(=O)N1O
61 | 114 to 115 °C | COc1cccc(CC(=O)O)c1OCCCc1cn(-c2ccc(C(F)(F)F)cc2)nc1C(C)C
62 | 53 to 55 °C | C=CCOc1cccc(-n2cnc(C(=O)OCC)c2)c1
63 | 202 to 206 °C | CN(Cc1ccc(-c2ccc(OCC#N)c(Br)c2)cc1)C(=O)c1cn(C)c2ccccc12
64 | 178 to 179 °C | COC(=O)c1ccc(CC2=CCc3ccc(NC(=O)CC4CCCC4)cc32)c(OC)c1
65 | 63 to 65 °C | COC(=O)C(C)Oc1ccc(OCc2ccccc2)cc1 (centres undefined)
66 | 174 to 184 °C | CCOC(=O)c1ccc2n1Cc1ccccc1N(C(=O)c1ccc(NC(=O)c3ccc(Cl)cc3Cl)c(C)c1)C2
67 | 130 to 133 °C | CCc1oc2ccc(Cl)cc2c1C(=O)c1ccc(Cl)c(S(N)(=O)=O)c1
68 | 135 to 137 °C | COc1ccccc1N1CCN(CCCNC(=O)c2cccc3c(=O)c(C)c(C4CCCC4)oc23)CC1
69 | 194 to 196 °C | CCC1c2cccn2-c2cc(O)c(F)cc2N1S(=O)(=O)c1ccc(O)c(C)c1 (centres undefined)
70 | 162 °C | COc1ccc(C2COc3c(ccc(O)c3C)C2O)cc1 (centres undefined)
71 | 154 to 156 °C | CC[C@@H](c1ccccc1)N(Cc1ccc(C(=O)O)cc1)S(=O)(=O)c1ccc(Cl)cc1
72 | 83 to 86 °C | CCCC1(S(=O)(=O)CCCN2CCC(N3Cc4ccccc4C3=O)CC2)c2ccccc2-c2ccccc21

Row | melting point | Compound
73 | 154 °C | NCCOc1cccc(CC(Nc2cc(-c3ccc(OCc4ccccc4)cc3)ncn2)C(=O)O)c1 (centres undefined)
74 | 225 °C | CCOc1ccc2c(c1)n(C(C)(C)CC(C)(C)C)c(=O)n2S(=O)(=O)c1ccc(NC(=O)N(CC)CC)cc1OC
75 | 141 °C | CCC(=O)NC1CCc2c(ccc(OC)c2N)C1 (centres undefined)
76 | 160 to 166 °C | CC(C)Cn1c(C(O)c2ccccc2)nc2cnc3ccccc3c21 (centres undefined)
77 | > 230 °C | COc1cc2cc(CO)c(CO)c(-c3ccnc(-n4c(=O)ccc5ccccc54)c3)c2cc1OC
78 | 120 to 122 °C | COc1ccccc1N1CCN(CC(O)COc2ccccc2CC(N)=O)CC1 (centres undefined)
79 | 128 to 132 °C | CCC(=O)OC1C(=O)N(CCNC)c2ccc(C)cc2SC1c1ccc(C)cc1 (centres undefined)
80 | 79 to 80 °C | Cc1ccc(S(=O)(=O)N2CCC(Sc3ccc(Cl)c(Cl)c3)CC2)cc1
81 | 119 to 120 °C | Cc1[nH]c2ccc(OCCCCBr)cc2c1C
82 | 82 to 86 °C | CCOc1ccc(C2C(=O)Oc3ccc(C)cc32)cc1 (centres undefined)
83 | 64 to 65 °C | CCCCOC(=O)CN(C(=O)C(F)(F)F)C(NC(C)C)P(=O)(O)OSCC (centres undefined)
84 | 258 to 260 °C | CC(=O)c1cccc(-c2cc3c4cc(C)ccc4[nH]c3n(C)c2=O)c1
85 | 83 to 85 °C | CCCC(Cc1ccc(OCc2ccccc2)cc1)C(=O)O (centres undefined)
86 | 165 to 167 °C | CCOC(=O)NC(=S)Nc1ccsc1C(=O)OC
87 | 67 °C | C=C(C)C(=O)OCCCc1ccc(-c2ccc(-c3ccc(OC(=O)C(=C)C)cc3F)c(F)c2)cc1
88 | 122 to 124 °C | COC(=O)c1cc(NC(=O)C(N)c2ccc3c(c2)C(C)(C)CCC3(C)C)cn1C (centres undefined)
89 | 37 to 39 °C | CN(CC(O)c1ccc(C=O)cc1)C(=O)OC(C)(C)C (centres undefined)
90 | 224 °C | O=C(O)c1ccccc1SSc1ccc([N+](=O)[O-])cc1C(Cl)(Cl)Cl
91 | 98 to 103 °C | COc1cccc2c1OC(COS(=O)(=O)c1ccc(C)cc1)C2 (centres undefined)
92 | 148 to 149 °C | CCOC(CNC(=S)Nc1ccnn1C)OCC
93 | 89 to 90 °C | COc1ccc(C(C)C(=O)O)cc1[N+](=O)[O-] (centres undefined)
94 | 106 to 108 °C | CCN1c2ncccc2C(=O)N(C)c2ccc(-c3cccn3C(C)=O)nc21
95 | 123 to 124 °C | CCCCCC(COc1ccc(C(=O)O)cc1)c1ccc2c(c1)SCCC2(C)C (centres undefined)
96 | 156 to 158 °C | CC(C)(C)OC(=O)NC1CCc2ccccc2C(=Cc2ccccc2)C1=O (centres undefined)
97 | 240 °C | CN(CCC1=C(C#N)C(c2cccc3nonc23)c2c[nH]nc2N1)C(=O)OC(C)(C)C (centres undefined)
98 | 219 °C | CCS(=O)(=O)c1ccc(-c2cc(-c3nc(N)sc3-c3cccc(C)n3)ccn2)cc1
99 | 158 to 160 °C | CN1C(=O)C(C)(c2ccc(O)cc2)Sc2ccccc21 (centres undefined)
